Publication PMC6120666 (The EMBO Journal, 2018)

Key:
Assay in all cases: Drug affinity chromatography with c-ponatinib and LC-MS/MS (ponatinib interactome)
Format in all cases: binding
[1] = target: T1, proteins of U2OS cell lysate (Homo sapiens, UniProt O43809); conditions: NUDT21, Cleavage and polyadenylation specificity factor subunit 5
T1 construct: Proteins enriched by c-ponatinib from U2OS cell lysate; endogenous in cells; host or cells: U2OS cell lysate
Summary of the method: (§1)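 Proteins were identified by nano-UPLC–MS/MS after elution with formic acid and trypsin digestion. They were captured from U2OS lysate (2 mg protein per pulldown, NP-40 buffer) on amine-coupled NHS beads during a 2 h incubation at 4 °C.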

[2] = target: T2, proteins of U2OS cell lysate (Homo sapiens, UniProt Q7L014); conditions: DDX46, Probable ATP-dependent RNA helicase DDX46
T2 construct: Proteins enriched by c-ponatinib from U2OS cell lysate; endogenous in cells; host or cells: U2OS cell lysate
Summary of the method: as §1

[3] = target: T3, proteins of U2OS cell lysate (Homo sapiens, UniProt Q9UHD8); conditions: SEPT9, Septin-9
T3 construct: Proteins enriched by c-ponatinib from U2OS cell lysate; endogenous in cells; host or cells: U2OS cell lysate
Summary of the method: as §1

[4] = target: T4, proteins of U2OS cell lysate (Homo sapiens, UniProt P51617); conditions: IRAK1, Interleukin-1 receptor-associated kinase 1
T4 construct: Proteins enriched by c-ponatinib from U2OS cell lysate; endogenous in cells; host or cells: U2OS cell lysate
Summary of the method: as §1

[5] = target: T5, proteins of U2OS cell lysate (Homo sapiens, UniProt Q00610); conditions: CLTC, Clathrin heavy chain 1
T5 construct: Proteins enriched by c-ponatinib from U2OS cell lysate; endogenous in cells; host or cells: U2OS cell lysate
T5 sequence (Q00610 whole entry): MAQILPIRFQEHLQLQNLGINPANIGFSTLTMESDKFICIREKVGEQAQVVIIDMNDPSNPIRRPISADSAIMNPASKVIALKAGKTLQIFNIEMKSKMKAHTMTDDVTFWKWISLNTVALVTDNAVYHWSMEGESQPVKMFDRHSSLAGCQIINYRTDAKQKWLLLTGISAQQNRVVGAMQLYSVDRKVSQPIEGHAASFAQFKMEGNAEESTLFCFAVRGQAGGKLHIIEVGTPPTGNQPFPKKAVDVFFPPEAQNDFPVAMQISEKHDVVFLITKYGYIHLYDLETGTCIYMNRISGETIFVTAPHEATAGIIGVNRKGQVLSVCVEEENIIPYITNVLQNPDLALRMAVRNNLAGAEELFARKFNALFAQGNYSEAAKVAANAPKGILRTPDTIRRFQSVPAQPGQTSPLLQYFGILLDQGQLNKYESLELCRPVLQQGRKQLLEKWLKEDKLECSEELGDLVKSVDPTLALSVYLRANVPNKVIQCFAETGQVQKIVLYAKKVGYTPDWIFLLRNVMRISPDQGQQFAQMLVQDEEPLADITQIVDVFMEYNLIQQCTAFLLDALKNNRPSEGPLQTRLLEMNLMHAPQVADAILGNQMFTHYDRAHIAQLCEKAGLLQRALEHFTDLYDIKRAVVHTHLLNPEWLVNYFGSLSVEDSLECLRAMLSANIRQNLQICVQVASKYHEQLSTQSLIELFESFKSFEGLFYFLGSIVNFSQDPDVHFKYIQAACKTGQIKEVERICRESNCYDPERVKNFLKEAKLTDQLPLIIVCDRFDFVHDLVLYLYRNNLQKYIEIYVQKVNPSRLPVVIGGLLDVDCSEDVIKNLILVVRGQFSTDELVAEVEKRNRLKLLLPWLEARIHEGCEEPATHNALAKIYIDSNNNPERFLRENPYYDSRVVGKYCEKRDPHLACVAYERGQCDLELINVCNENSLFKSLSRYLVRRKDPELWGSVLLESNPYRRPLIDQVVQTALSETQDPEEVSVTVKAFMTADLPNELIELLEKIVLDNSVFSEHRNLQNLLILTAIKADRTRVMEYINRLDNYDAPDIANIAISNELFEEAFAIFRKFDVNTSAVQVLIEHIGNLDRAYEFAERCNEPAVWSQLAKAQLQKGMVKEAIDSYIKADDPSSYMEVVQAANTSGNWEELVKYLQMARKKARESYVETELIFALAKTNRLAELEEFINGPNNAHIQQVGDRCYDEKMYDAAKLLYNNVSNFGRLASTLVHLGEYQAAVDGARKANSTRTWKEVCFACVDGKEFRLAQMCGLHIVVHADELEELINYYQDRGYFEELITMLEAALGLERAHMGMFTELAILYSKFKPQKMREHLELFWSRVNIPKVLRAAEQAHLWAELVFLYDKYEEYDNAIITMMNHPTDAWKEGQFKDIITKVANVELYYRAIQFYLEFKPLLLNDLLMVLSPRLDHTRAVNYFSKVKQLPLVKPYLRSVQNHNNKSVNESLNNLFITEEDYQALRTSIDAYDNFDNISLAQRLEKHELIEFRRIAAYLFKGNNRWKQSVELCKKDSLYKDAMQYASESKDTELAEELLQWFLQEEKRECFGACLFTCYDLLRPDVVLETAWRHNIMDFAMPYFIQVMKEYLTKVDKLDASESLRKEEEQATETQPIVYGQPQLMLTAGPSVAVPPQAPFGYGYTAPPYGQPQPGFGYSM
Summary of the method: as §1

[6] = target: T6, proteins of U2OS cell lysate (Homo sapiens, UniProt A1L0T0); conditions: ILVBL, Acetolactate synthase-like protein
T6 construct: Proteins enriched by c-ponatinib from U2OS cell lysate; endogenous in cells; host or cells: U2OS cell lysate
T6 sequence (A1L0T0 whole entry): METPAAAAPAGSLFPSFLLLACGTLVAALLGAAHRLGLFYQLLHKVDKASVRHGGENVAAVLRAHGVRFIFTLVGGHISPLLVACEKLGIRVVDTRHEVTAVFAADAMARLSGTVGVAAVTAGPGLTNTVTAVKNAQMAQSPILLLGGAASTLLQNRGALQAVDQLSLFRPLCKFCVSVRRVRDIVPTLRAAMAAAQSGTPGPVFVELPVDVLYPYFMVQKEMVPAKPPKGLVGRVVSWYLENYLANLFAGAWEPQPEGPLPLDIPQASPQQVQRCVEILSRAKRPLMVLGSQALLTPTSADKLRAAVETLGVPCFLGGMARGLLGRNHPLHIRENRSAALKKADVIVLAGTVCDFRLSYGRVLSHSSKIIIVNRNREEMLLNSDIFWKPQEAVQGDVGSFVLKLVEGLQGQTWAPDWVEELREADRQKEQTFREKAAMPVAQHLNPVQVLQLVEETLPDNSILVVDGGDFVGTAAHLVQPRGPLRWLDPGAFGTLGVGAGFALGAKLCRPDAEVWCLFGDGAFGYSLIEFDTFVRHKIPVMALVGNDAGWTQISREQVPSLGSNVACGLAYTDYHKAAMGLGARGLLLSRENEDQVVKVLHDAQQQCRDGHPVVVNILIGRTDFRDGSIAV
Summary of the method: as §1

[7] = target: T7, proteins of U2OS cell lysate (Homo sapiens, UniProt Q16531); conditions: DDB1, DNA damage-binding protein 1
T7 construct: Proteins enriched by c-ponatinib from U2OS cell lysate; endogenous in cells; host or cells: U2OS cell lysate
Summary of the method: as §1

[8] = target: T8, proteins of U2OS cell lysate (Homo sapiens, UniProt Q14152); conditions: EIF3A, Eukaryotic translation initiation factor 3 subunit A
T8 construct: Proteins enriched by c-ponatinib from U2OS cell lysate; endogenous in cells; host or cells: U2OS cell lysate
Summary of the method: as §1

[9] = target: T9, proteins of U2OS cell lysate (Homo sapiens, UniProt Q9UIA9); conditions: XPO7, Exportin-7
T9 construct: Proteins enriched by c-ponatinib from U2OS cell lysate; endogenous in cells; host or cells: U2OS cell lysate
Summary of the method: as §1

[10] = target: T10, proteins of U2OS cell lysate (Homo sapiens, UniProt O94906); conditions: PRPF6, Pre-mRNA-processing factor 6
T10 construct: Proteins enriched by c-ponatinib from U2OS cell lysate; endogenous in cells; host or cells: U2OS cell lysate
Summary of the method: as §1

[11] = target: T11, proteins of U2OS cell lysate (Homo sapiens, UniProt Q16181); conditions: SEPT7;DKFZp586I031, Septin-7
T11 construct: Proteins enriched by c-ponatinib from U2OS cell lysate; endogenous in cells; host or cells: U2OS cell lysate
Summary of the method: as §1

[12] = target: T12, proteins of U2OS cell lysate (Homo sapiens, UniProt P08670); conditions: VIM, Vimentin
T12 construct: Proteins enriched by c-ponatinib from U2OS cell lysate; endogenous in cells; host or cells: U2OS cell lysate
Summary of the method: as §1

[13] = target: T13, proteins of U2OS cell lysate (Homo sapiens, UniProt P49759); conditions: CLK1, Dual specificity protein kinase CLK1
T13 construct: Proteins enriched by c-ponatinib from U2OS cell lysate; endogenous in cells; host or cells: U2OS cell lysate
Summary of the method: as §1

[14] = target: T14, proteins of U2OS cell lysate (Homo sapiens, UniProt Q9NYJ8); conditions: TAB2, TGF-beta-activated kinase 1 and MAP3K7-binding protein 2
T14 construct: Proteins enriched by c-ponatinib from U2OS cell lysate; endogenous in cells; host or cells: U2OS cell lysate
T14 sequence (Q9NYJ8 whole entry): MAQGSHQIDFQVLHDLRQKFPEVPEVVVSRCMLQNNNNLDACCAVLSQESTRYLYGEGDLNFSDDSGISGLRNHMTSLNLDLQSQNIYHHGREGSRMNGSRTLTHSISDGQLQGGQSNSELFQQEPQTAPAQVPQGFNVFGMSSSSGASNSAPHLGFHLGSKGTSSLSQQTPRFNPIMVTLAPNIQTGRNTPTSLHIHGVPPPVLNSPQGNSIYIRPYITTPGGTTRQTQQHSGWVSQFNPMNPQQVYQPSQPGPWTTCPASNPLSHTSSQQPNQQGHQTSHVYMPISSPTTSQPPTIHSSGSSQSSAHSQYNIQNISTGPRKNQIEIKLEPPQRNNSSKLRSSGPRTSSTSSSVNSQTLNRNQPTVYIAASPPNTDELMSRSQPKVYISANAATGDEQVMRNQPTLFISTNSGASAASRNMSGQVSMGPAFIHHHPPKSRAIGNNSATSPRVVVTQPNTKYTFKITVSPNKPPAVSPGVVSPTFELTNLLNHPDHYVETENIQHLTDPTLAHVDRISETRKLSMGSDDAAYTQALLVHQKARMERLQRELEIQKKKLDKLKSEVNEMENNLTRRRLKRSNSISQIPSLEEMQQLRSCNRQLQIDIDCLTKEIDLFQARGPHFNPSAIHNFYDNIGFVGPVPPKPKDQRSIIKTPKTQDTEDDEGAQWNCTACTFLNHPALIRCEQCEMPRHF
Summary of the method: as §1

[15] = target: T15, proteins of U2OS cell lysate (Homo sapiens, UniProt Q9Y2V7); conditions: COG6, Conserved oligomeric Golgi complex subunit 6
T15 construct: Proteins enriched by c-ponatinib from U2OS cell lysate; endogenous in cells; host or cells: U2OS cell lysate
Summary of the method: as §1

[16] = target: T16, proteins of U2OS cell lysate (Homo sapiens, UniProt P55084); conditions: HADHB, Trifunctional enzyme subunit beta, mitochondrial
T16 construct: Proteins enriched by c-ponatinib from U2OS cell lysate; endogenous in cells; host or cells: U2OS cell lysate
Summary of the method: as §1

[17] = target: T17, proteins of U2OS cell lysate (Homo sapiens, UniProt O00410); conditions: IPO5, Importin-5
T17 construct: Proteins enriched by c-ponatinib from U2OS cell lysate; endogenous in cells; host or cells: U2OS cell lysate
T17 sequence (O00410 whole entry): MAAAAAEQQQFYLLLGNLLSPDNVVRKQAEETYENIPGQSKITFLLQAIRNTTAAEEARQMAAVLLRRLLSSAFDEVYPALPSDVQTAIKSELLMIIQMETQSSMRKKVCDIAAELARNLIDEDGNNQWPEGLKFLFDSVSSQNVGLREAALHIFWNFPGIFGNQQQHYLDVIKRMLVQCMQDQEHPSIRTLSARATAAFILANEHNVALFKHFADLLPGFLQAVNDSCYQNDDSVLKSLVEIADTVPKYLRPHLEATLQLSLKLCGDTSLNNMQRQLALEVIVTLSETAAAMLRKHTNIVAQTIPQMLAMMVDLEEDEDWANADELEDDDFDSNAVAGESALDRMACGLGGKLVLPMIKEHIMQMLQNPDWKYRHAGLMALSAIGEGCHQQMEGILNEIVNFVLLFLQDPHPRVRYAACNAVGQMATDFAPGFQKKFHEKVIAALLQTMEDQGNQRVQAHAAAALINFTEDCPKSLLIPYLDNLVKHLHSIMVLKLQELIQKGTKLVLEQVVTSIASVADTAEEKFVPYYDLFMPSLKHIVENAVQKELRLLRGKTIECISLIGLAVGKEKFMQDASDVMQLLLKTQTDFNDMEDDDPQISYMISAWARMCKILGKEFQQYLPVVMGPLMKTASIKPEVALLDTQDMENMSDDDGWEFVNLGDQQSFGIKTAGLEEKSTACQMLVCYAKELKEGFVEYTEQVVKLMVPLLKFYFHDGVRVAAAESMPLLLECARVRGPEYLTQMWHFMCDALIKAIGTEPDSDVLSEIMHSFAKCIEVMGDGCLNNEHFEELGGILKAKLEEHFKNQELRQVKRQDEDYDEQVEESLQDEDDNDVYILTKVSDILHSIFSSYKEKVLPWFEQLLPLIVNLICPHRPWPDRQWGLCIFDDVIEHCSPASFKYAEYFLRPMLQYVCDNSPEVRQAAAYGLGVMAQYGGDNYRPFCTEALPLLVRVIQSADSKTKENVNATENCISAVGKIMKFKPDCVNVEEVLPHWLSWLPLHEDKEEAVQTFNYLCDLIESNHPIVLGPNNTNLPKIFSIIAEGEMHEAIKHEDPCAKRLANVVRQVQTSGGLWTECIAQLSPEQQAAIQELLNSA
Summary of the method: as §1

[18] = target: T18, proteins of U2OS cell lysate (Homo sapiens, UniProt P45880); conditions: captured protein VDAC2, Rank 163
T18 construct: Proteins enriched by c-ponatinib from U2OS cell lysate; endogenous in cells; host or cells: U2OS cell lysate
Summary of the method: as §1

[19] = target: T19, proteins of U2OS cell lysate (Homo sapiens, UniProt Q9UHB6); conditions: captured protein LIMA1, Rank 120
T19 construct: Proteins enriched by c-ponatinib from U2OS cell lysate; endogenous in cells; host or cells: U2OS cell lysate
T19 sequence (Q9UHB6 whole entry): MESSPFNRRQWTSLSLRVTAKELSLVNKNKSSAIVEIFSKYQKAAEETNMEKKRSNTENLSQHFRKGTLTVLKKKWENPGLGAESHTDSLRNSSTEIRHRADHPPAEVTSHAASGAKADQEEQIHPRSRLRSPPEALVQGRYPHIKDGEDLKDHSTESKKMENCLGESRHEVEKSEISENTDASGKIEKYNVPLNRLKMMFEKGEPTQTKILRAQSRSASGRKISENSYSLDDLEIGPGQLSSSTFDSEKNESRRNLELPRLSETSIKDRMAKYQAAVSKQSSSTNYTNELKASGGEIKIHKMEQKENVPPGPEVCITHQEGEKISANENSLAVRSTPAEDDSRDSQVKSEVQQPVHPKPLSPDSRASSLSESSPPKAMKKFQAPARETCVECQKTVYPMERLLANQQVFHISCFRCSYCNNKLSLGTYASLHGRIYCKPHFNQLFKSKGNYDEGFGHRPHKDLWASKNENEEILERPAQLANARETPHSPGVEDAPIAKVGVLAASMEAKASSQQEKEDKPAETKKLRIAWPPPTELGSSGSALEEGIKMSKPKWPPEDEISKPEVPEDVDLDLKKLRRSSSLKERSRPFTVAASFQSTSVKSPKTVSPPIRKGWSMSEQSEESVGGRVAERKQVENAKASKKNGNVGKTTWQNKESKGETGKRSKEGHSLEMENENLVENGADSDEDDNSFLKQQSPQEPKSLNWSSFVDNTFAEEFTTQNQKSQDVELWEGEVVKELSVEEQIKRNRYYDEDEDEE
Summary of the method: as §1

T1 sequence (O43809 whole entry): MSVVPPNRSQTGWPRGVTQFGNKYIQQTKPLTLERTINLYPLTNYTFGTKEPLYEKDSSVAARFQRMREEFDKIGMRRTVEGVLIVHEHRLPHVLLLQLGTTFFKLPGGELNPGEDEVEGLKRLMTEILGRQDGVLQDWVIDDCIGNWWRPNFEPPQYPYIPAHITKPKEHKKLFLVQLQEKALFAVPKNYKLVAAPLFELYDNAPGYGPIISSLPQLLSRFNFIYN

SMILES	Average LFQ PON_WT [1]	Average LFQ PON_WT [2]	Average LFQ PON_WT [3]	Average LFQ PON_WT [4]	Average LFQ PON_WT [5]	Average LFQ PON_WT [6]	Average LFQ PON_WT [7]	Average LFQ PON_WT [8]	Average LFQ PON_WT [9]	Average LFQ PON_WT [10]	Average LFQ PON_WT [11]	Average LFQ PON_WT [12]	Average LFQ PON_WT [13]	Average LFQ PON_WT [14]	Average LFQ PON_WT [15]	Average LFQ PON_WT [16]	Average LFQ PON_WT [17]	Average LFQ intensity [18]	Average LFQ intensity [19]
Cc1ccc(C(=O)Nc2ccc(CN3CCN(C)CC3)c(C(F)(F)F)c2)cc1C#Cc1cnc2cccnn12 [PON]	20.8271	21.404	23.3795	23.3938	26.5716	23.3851	20.7257	21.466	20.002	19.4979	23.204	26.7986	19.0546	24.3605	20.9766	23.6834	21.1425		
Cc1ccc(C(=O)Nc2ccc(CN3CCN(CCCN)CC3)c(C(F)(F)F)c2)cc1C#Cc1cnc2cccnn12 [c-ponatinib, reference compound]																		22.3592	23.0824
